Measurements published in PMC8409151, “GT198 Is a Target of Oncology Drugs and Anticancer Herbs” (Frontiers in Oral Health, 2021).
“And” between values parts separate entries of the source, which are not always exact repeats. Equal values may be shown once. Read-outs that look alike come from different tables or passages of the source. *1 amine or outer side, *2 acyl side, *3 side chain or, on linkers, in order; H or OH if unused. Where a SMILES comes first, the peptide text is derived from it. Bridges are numbered along the chain shown (N, C = ends). Roman numbers before positions name the chains, in order. [ ]: non-standard residue; d: D form. Actinocin(9to1) = Cc1c2oc3c(C)ccc(C(=O)[*:1])c3nc-2c(C(=O)[*:2])c(N)c1=O; NMeV = CN[C@H](C(=O)O)C(C)C; Sar = CNCC(=O)O

T1: GT198 (Homo sapiens, UniProt Q9P2W1)
T1 sequence (Q9P2W1 1-180): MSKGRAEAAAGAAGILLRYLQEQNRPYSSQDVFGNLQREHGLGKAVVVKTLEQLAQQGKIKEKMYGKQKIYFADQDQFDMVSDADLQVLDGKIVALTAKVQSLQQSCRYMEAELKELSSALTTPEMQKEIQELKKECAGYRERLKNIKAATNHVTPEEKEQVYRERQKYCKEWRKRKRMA

T2: GT198 (Hop2), C-terminally truncated (human, UniProt Q9P2W1 1-180, del181-217)
T2 sequence: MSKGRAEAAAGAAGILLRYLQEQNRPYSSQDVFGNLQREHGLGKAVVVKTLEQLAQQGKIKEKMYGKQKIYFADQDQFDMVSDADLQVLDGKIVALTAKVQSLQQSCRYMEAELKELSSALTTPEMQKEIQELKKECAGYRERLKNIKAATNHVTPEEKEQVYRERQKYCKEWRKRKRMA


Tests used:
GT198 [1] = target: T1, GT198; test: In vitro DNA-binding assay of GT198 (biotinylated DNA, chemiluminescence); parameters: Efficacy: dose or concentration left out as unconfirmed; conditions: for Activity: NCI Approved Oncology Drug Set VII; for Efficacy: percent of inhibition of drugs; for inhibition at 2 µM: read-out: Efficacy
GT198 [2] = target: T1, GT198; test: biochemical
GT198 [3] = target: T1, GT198; parameters: this study used a C-terminal truncated version of GT198 (aa 1–180) to ensure high sensitivity of the assay; His tag (N); made in house; host or cells: E. coli BL21 (DE3) pLysS; method as in doi:10.1101/675579; conditions: separate study ref 45; cited from earlier work
[4] = target: T2, GT198 (Hop2), C-terminally truncated; test: plate binding assay (immobilized protein, streptavidin-HRP chemiluminescence); EC50; no drug; 20 mM Tris-HCl pH 7.5, 50 mM NaCl, 75 mM KCl, 0.5 mM MgCl2, 0.05% Triton X-100, 10% glycerol, 1 mM DTT; 4 C, 4 h to overnight; 400 ng/well GT198 plus 5 ug BSA; conditions: protein: recombinant; tags: N-terminal His; chain copies: 2; label: biotin
[5] = Table 1, drugs not measured with IC50 are shown as active or inactive
[6] = IC50, figures 2, 3, 150 nM DNA, sigmoidal curve fit, ND = not detectable

GT198 inhibition (in words) (GT198 [1])	Efficacy (active or inactive) (GT198 [1]; [5])	IC50 (GT198 [2])	inhibition at 2 µM (GT198 [1])	Molecule	further results
GT198 inhibitors	Active	–	–	CC(=O)O[C@@]12CO[C@@H]1C[C@H](O)[C@@]1(C)C(=O)[C@H](O)C3=C(C)[C@@H](OC(=O)[C@H](O)[C@@H](NC(=O)OC(C)(C)C)c4ccccc4)C[C@@](O)([C@@H](OC(=O)c4ccccc4)[C@H]21)C3(C)C [Docetaxel]	–
positive inhibitors	Active	–	–	CO[C@H]1C[C@@H]2CC[C@@H](C)[C@@](O)(O2)C(=O)C(=O)N2CCCC[C@H]2C(=O)O[C@H]([C@H](C)C[C@@H]2CC[C@@H](O)[C@H](OC)C2)CC(=O)[C@H](C)/C=C(\C)[C@@H](O)[C@@H](OC)C(=O)[C@H](C)C[C@H](C)/C=C/C=C/C=C/1C [Sirolimus]	–
GT198 inhibitors	Active	–	–	COc1cc([C@@H]2c3cc4c(cc3[C@@H](O[C@@H]3O[C@@H]5CO[C@@H](c6cccs6)O[C@H]5[C@H](O)[C@H]3O)[C@H]3COC(=O)[C@H]23)OCO4)cc(OC)c1O [Teniposide]	–
GT198 inhibitors	–	24 nM	42%	COc1cc([C@@H]2c3cc4c(cc3[C@@H](O[C@@H]3O[C@@H]5CO[C@@H](C)O[C@H]5[C@H](O)[C@H]3O)[C@H]3COC(=O)[C@H]23)OCO4)cc(OC)c1O [Etoposide]	IC50 (GT198 [1]; [6]): 24.2 nM
–	–	362 nM	56%	CC(=O)[C@]1(O)Cc2c(O)c3c(c(O)c2[C@@H](O[C@H]2C[C@H](N)[C@H](O)[C@H](C)O2)C1)C(=O)c1ccccc1C3=O [Idarubicin]	IC50 (GT198 [1]; [6]): 362 nM
–	Inactive	–	–	CO[C@H]1C(=O)[C@]2(C)[C@@H](OC)C[C@H]3OC[C@@]3(OC(C)=O)[C@H]2[C@H](OC(=O)c2ccccc2)[C@]2(O)C[C@H](OC(=O)[C@H](O)[C@@H](NC(=O)OC(C)(C)C)c3ccccc3)C(C)=C1C2(C)C [Cabazitaxel]	–
negatives	Inactive	–	–	CC[C@]1(O)C[C@H]2CN(CCc3c([nH]c4ccccc34)[C@@](C(=O)OC)(c3cc4c(cc3OC)N(C=O)[C@H]3[C@@](O)(C(=O)OC)[C@H](OC(C)=O)[C@]5(CC)C=CCN6CC[C@]43[C@@H]65)C2)C1 [Vincristine]	–

More lines, now with the values behind:

Molecule	GT198 inhibition (in words) (GT198 [1])	Efficacy (active or inactive) (GT198 [1]; [5])	IC50 (GT198 [2])	inhibition at 2 µM (GT198 [1])	further results
CC(C)C[C@H](NC(=O)[C@H](CCc1ccccc1)NC(=O)CN1CCOCC1)C(=O)N[C@@H](Cc1ccccc1)C(=O)N[C@@H](CC(C)C)C(=O)[C@@]1(C)CO1 [Carfilzomib]	positive inhibitors	Active	–	–	–
CCN(CC)CCNC(=O)c1c(C)[nH]c(/C=C2\C(=O)Nc3ccc(F)cc32)c1C [Sunitinib]	positive inhibitors	Active	–	–	Activity (GT198 [1]; Supplementary Table 1): +
N.N.[Cl][Pt][Cl] [Cisplatin]	–	Inactive	–	–	–
Cc1c2oc3c(C)ccc(C(=O)N[C@@H]4C(=O)N[C@H](C(C)C)C(=O)N5CCC[C@H]5C(=O)N(C)CC(=O)N(C)[C@@H](C(C)C)C(=O)O[C@@H]4C)c3nc-2c(C(=O)N[C@@H]2C(=O)N[C@H](C(C)C)C(=O)N3CCC[C@H]3C(=O)N(C)CC(=O)N(C)[C@@H](C(C)C)C(=O)O[C@@H]2C)c(N)c1=O [Dactinomycin] (I: T[dV]P[Sar][NMeV] / II: T[dV]P[Sar][NMeV]; ester I:1-I:C, II:1-II:C; linker I:N-II:N via Actinocin(9to1))	positive inhibitors	–	–	–	Efficacy (active or inactive) (GT198 [1]): Active
N.N.O=C([O-])C1(C(=O)[O-])CCC1.[Pt+2] [Carboplatin]	does not inhibit GT198	Inactive	–	–	IC50 (GT198 [1]; Supplementary Table 1): > 2000 nM; Efficacy (GT198 [1]; Supplementary Table 1): 0%
O=C1c2c(O)ccc(O)c2C(=O)c2c(NCCNCCO)ccc(NCCNCCO)c21 [Mitoxantrone]	almost complete inhibition	–	187 nM	90%	IC50 (GT198 [1]; [6]): 187 nM; Activity (GT198 [1]; Supplementary Table 1): +; Efficacy (GT198 [1]; Supplementary Table 1): 90%
O=c1[nH]c(=O)n([C@H]2C[C@H](O)[C@@H](CO)O2)cc1C(F)(F)F [Trifluridine]	positive inhibitors	Active	–	–	Activity (GT198 [1]; Supplementary Table 1): +
CN(Cc1cnc2nc(N)nc(N)c2n1)c1ccc(C(=O)N[C@@H](CCC(=O)O)C(=O)O)cc1 [Methotrexate]	negatives	–	–	–	–
CC1=C(O)C(=O)C=C2C1=CC=C1[C@@]2(C)CC[C@@]2(C)[C@@H]3C[C@](C)(C(=O)O)CC[C@]3(C)CC[C@]12C [Celastrol]	positive	–	–	30%	IC50 (GT198 [1]; IC50): 350 nM
CC[C@@]1(O)C(=O)OCc2c1cc1n(c2=O)Cc2cc3c(CN(C)C)c(O)ccc3nc2-1 [Topotecan]	very poor affinities or fail to inhibit GT198	–	> 2000 nM	4%	Efficacy (GT198 [1]; Supplementary Table 1): 4%
CCc1c2c(nc3ccc(OC(=O)N4CCC(N5CCCCC5)CC4)cc13)-c1cc3c(c(=O)n1C2)COC(=O)[C@]3(O)CC [Irinotecan]	very poor affinities or fail to inhibit GT198	–	> 2000 nM	10%	–
CCCCC(=O)OCC(=O)[C@]1(O)Cc2c(O)c3c(c(O)c2[C@@H](O[C@H]2C[C@H](NC(=O)C(F)(F)F)[C@H](O)[C@H](C)O2)C1)C(=O)c1c(OC)cccc1C3=O [Valrubicin]	–	–	973 nM	26%	IC50 (GT198 [1]; [6]): 973 nM
NCC(=O)CCC(=O)O [Aminolevulinic acid]	positive inhibitors	Active	–	–	Activity (GT198 [1]; Supplementary Table 1): +
CC[C@@]1(O)C(=O)OCc2c1cc1n(c2=O)Cc2cc3ccccc3nc2-1 [Camptothecin]	very poor affinities or fail to inhibit GT198	–	2060 nM	30%	–
COc1cccc2c1C(=O)c1c(O)c3c(c(O)c1C2=O)C[C@@](O)(C(=O)CO)C[C@@H]3O[C@H]1C[C@H](N)[C@@H](O)[C@H](C)O1 [Epirubicin]	–	–	–	–	IC50 (GT198 [1]; IC50): 750 nM and 749 nM
COc1cccc2c1C(=O)c1c(O)c3c(c(O)c1C2=O)C[C@@](O)(C(C)=O)C[C@@H]3O[C@H]1C[C@H](N)[C@H](O)[C@H](C)O1 [Daunorubicin]	–	–	149 nM	48%	IC50 (GT198 [1]; [6]): 150 nM
CC(=O)O[C@H]1C(=O)[C@@]2(C)[C@H]([C@H](OC(=O)c3ccccc3)[C@]3(O)C[C@H](OC(=O)[C@H](O)[C@@H](NC(=O)c4ccccc4)c4ccccc4)C(C)=C1C3(C)C)[C@]1(OC(C)=O)CO[C@@H]1C[C@@H]2O [Paclitaxel]	GT198 inhibitors	–	5 nM	32%	Mode of inhibition (GT198 [3]): allosteric inhibitor or noncompetitive inhibitor
CCTGGGGTTGCTGAGGTCCTGGCAG (ssDNA, biotin before the first printed base (5')) [biotin 25-mer ssDNA]	–	–	–	–	apparent K (half saturation) [4]: 43 nM
